These results are taken from paper PMC8230281, “Improving the Pharmacological Properties of Ciclopirox for Its Use in Congenital Erythropoietic Porphyria” (Journal of Personalized Medicine, 2021).

Data set [1] can be described thus: Serum CPX pharmacokinetics in mice after single IV or oral dose, quantified by NMR. It is filed as in vivo. On the procedure:
(§1) The compound ciclopirox (CPX, 6-cyclohexyl-1-hydroxy-4-methyl-2(1H)-pyridinone) was purchased from Santa Cruz Biotechnology (sc-204688), and phosphorylated ciclopirox (CPXpom, O-phosphoryl-methylen-6-cyclohexyl-1-hydroxy-4-metyl-2(1H)-Pyridinone) was synthetized by Charnwood Molecular Ltd. PD of CPX was studied in HEK CRISPR Cas UROIIIS-C73R and UROIIIS-P248Q cell lines. Briefly, 60 µM dose of CPX and phosphorylated CPX was administrated for 30 min and 1, 2, and 4 h of exposition. Then, the cells were counted and harvested. Samples were treated by the same protocol for the porphyrin extraction. Mouse experiments. For the PK experiments and for each bolus administration method 10 WT ICR (CD-1®) outbred mice (Envigo) were used. Serum was collected after the administration at 1, 2, 4, 6 (7), 12, and 24 h. At 48 (36) h, the mice were sacrificed. Triplicates were collected for each data point. […] In the PD experiments, the concentration of porphyrins was measured from circulating blood. […]
NMR data were collected at on an 800-MHz Bruker Avance III spectrometer equipped with a cryoprobe and on a 600-MHz Bruker Avance III US2 spectrometer. […] Metabolic quantification was carried out at peaks’ integral against the added internal reference compound. […]
Non-compartmental serum and urine pharmacokinetic parameters for CPXpom and CPX were determined using SimBiology module in MATLAB. […]

Data set [2] in a line: GI toxicity in WT mice after administration of CPX or CPXpom. It is filed as in vivo. As to conditions: for macroscopic inflammation of the gut: mice, Figure 1; for GI toxicity: 100 mg/kg.
Data set [3] has as its system HEK CRISPR Cas UROIIIS-C73R cell line. The data set can be described thus: URO I levels in HEK CRISPR/Cas9 cellular model of CEP (UROIIIS-C73R), HPLC. It is filed as cell-based. Conditions: UROIIIS^C73R HEK cells; 60 µM; 30 min to 4 h. How it is done:
as §1, with “used.” for “used. Serum was collected after the administration at 1, 2, 4, 6 (7), 12, and 24 h. At 48 (36) h, the mice were sacrificed. Triplicates were collected for each data point.”
(§2) Murine blood samples were obtained from the submandibular vein and collected in ethylenediaminetetraacetic acid tubes; samples were aliquoted and stored in a freezer at −80 °C. […] The samples were then analyzed by HPLC.
(§3) Porphyrins from cell lines were separated by HPLC analysis on a ODS Hypersil C18 column (5 µm, 3 mm × 200 mm; Thermo Scientific, Waltham, MA, US) in a HPLC chromatograph (Shimadzu, Long Beach, CA, US). […] All analyses were performed at 20 °C, and porphyrins were detected by fluorescence with an excitation wavelength 405 nm and emission wavelength 610 nm. […]

In data set [4] the test system is HEK CRISPR Cas UROIIIS-P248Q cell line. In words: URO I levels in HEK CRISPR/Cas9 cellular model of CEP (UROIIIS-P248Q), HPLC. It is filed as cell-based. As to conditions: UROIIIS^P248Q HEK cells; 60 µM. On the procedure:
as §1, with “used.” for “used. Serum was collected after the administration at 1, 2, 4, 6 (7), 12, and 24 h. At 48 (36) h, the mice were sacrificed. Triplicates were collected for each data point.”
as §2, §3

In data set [5] the test system is mouse model of the disease (UROIIIS^P248Q/P248Q). In words: Oral gavage for 30 days in mouse model of CEP. It is filed as in vivo. Conditions: UROIIIS^P248Q/P248Q mice; for reduction in total UROI levels in serum: oral gavage, after 30 days, equivalent dose. On the procedure: The compound ciclopirox (CPX, 6-cyclohexyl-1-hydroxy-4-methyl-2(1H)-pyridinone) was purchased from Santa Cruz Biotechnology (sc-204688), and phosphorylated ciclopirox (CPXpom, O-phosphoryl-methylen-6-cyclohexyl-1-hydroxy-4-metyl-2(1H)-Pyridinone) was synthetized by Charnwood Molecular Ltd. PD of CPX was studied in HEK CRISPR Cas UROIIIS-C73R and UROIIIS-P248Q cell lines. Briefly, 60 µM dose of CPX and phosphorylated CPX was administrated for 30 min and 1, 2, and 4 h of exposition. Then, the cells were counted and harvested. Samples were treated by the same protocol for the porphyrin extraction. Mouse experiments. For the PK experiments and for each bolus administration method 10 WT ICR (CD-1®) outbred mice (Envigo) were used. Serum was collected after the administration at 1, 2, 4, 6 (7), 12, and 24 h. At 48 (36) h, the mice were sacrificed. Triplicates were collected for each data point. Urine samples were collected at the same interval. In the PD experiments, the concentration of porphyrins was measured from circulating blood. Blood samples were extracted from the submandibular vein every week, and mice were weighed before each extraction. Mice were treated with oral CPX by gavage to evaluate CPX dose efficiency. […] All work performed with animals was approved by the competent authority (Diputación Foral de Bizkaia) following European and Spanish directives. The CIC bioGUNE Animal Facility is accredited by AAALAC Intl.
as §2, §3

For a further data set, the system named is murine models of CEP. Further details: method as in PMID 30232228. Conditions: cited from earlier work.
On the set-up of data set [6]: method as in PMID 2989308. Conditions: weak acidic N-hydroxyl group of the 1-hydroxy-2(1H)-pyridones; cited from earlier work.
On the set-up of data set [7]: method as in PMID 7197542. As to conditions: oral; 1 mg/kg rats, 10-15 mg/kg dogs; cited from earlier work.
Details of data set [8]: method as in PMID 7028047. Conditions: rats; 4 weeks; doses up to 300 mg/kg; cited from earlier work.
The subject of data set [9] is cellular models of the disease, obtained from HEK cells by CRISPR/Cas9 editing. In words: Equivalent cellular studies in cellular models of CEP (data not shown). It is filed as cell-based. The source says: We first tested the derivatives on different cellular models of the disease, obtained from HEK cells by CRISPR/Cas9 editing. The selected mutations (UROIIIS^C73R and UROIIIS^P248Q) result in destabilized proteins and severe phenotypes. […] Thus, the reported activity for CPXpom is attributed to a proper hydrolysis of the compound into the active species.

With `Cc1cc(C2CCCCC2)n(O)c(=O)c1` [CPX, 6-cyclohexyl-1-hydroxy-4-methyl-2(1H)-pyridinone], in [1] (Table S3, serum, IV, dose 10 mg/kg, CPXfree = CPXtot − CPXglu), the CPXFREE is recorded as < 21.4%. Besides, the “macroscopic inflammation of the gut” value in data set [2] is listed as “Macroscopic inflammation can be observed”. In addition, the GI toxicity entry in data set [2] (mouse, in vivo, po) is “results in GI toxicity”. The “levels of the toxic by-product URO I” value in data set [3] and in data set [4] was “significantly reduced” throughout. The “reduction in total UROI levels in serum” value in data set [5] is 40%. Besides, the splenomegaly entry with murine models of CEP (indirect measure of reduction in circulating porphyrins) is “reduced splenomegaly”. Besides, the “levels of the toxic porphyrins, particularly URO I and COPRO I” value with murine models of CEP (liver, red blood cells, and urine) was “significant decrease”. Besides, in [6], the pK is 7.

Turning to `Cc1cc(C2CCCCC2)n(OCOP(=O)(O)O)c(=O)c1` [CPXpom, O-phosphoryl-methylen-6-cyclohexyl-1-hydroxy-4-metyl-2(1H)-Pyridinone], the “circulating concentration of CPXpom (NMR spectrum of serum)” value in data set [1] (after CPXpom administration) is given as “below the detection limit”. For the same compound, the GI toxicity result in data set [2] (WT mice, oral (gavage)) is listed as “does not result in GI toxicity”; in [5] (orally by gavage for 30 days) it was “no GI toxicity was observed”. Moreover, the “macroscopic inflammation of the gut” value in data set [2] is “no macroscopic inflammation”. The “levels of the toxic by-product URO I” value in [3] and in data set [4] was “significantly reduced” each time. The “reduction in total UROI levels in serum” value in [5] is reported as 5%.

With `Cc1cc(C2CCCCC2)n(O)c(=O)c1` [ciclopirox-olamine], in data set [7], the “elimination in urine (time)” value was 3 to 6 h. In data set [8], the gastric findings result is “gastric irritation and chronic gastritis”.

In the case of `NC(Cn1ccc(=O)c(O)c1)C(=O)O` (stereo not shown) [mimosine], the “activity in cellular models of CEP” value in [9] was “no activity”.
